Key:
[1] = target: T1, HIV protease (Human immunodeficiency virus type 1 group M subtype B, UniProt P04585); assay: biochemical; type: biochemical; details: Table 21; above-described enzyme assay
T1 construct: HIV protease is diluted in the assay buffer to a final enzyme concentration of 12.3 nanomolar, based on a molecular weight of 10,780
Experimental: The enzyme method is described below. […] The positive control is MVT-101 (Miller, M. et al, Science, 246, 1149 (1989)]. The assay conditions are as follows:
20 mM sodium phosphate, pH 6.4
The above described substrate is dissolved in DMSO, then diluted 10 fold in assay buffer. Final substrate concentration in the assay is 80 μM.
The final concentration of DMSO is 14% and the final concentration of glycerol is 18%. The test compound is dissolved in DMSO and diluted in DMSO to 10× the test concentration; 10 μl of the enzyme preparation is added, the materials mixed and then the mixture is incubated at ambient temperature for 15 minutes. The enzyme reaction is initiated by the addition of 40μl of substrate. The increase in fluorescence is monitored at 4 time points (0, 8, 16 and 24 minutes) at ambient temperature. Each assay is carried out in duplicate wells.

[2] = tested on: HIV-1 in CEM cells; assay: HIV inhibition assay of acutely infected CEM cells (tetrazolium/MTT colorimetric), antiviral efficacy; type: cell-based; details: Human immunodeficiency virus 1, CCRF-CEM, 168 h
Source text: (§1) Methods, 20, 309-321 (1988).
(§2) [table 42: the next 8 blocks are its lines as printed, fixed-width]

[3] = in vitro; details: human
Source text: as §1, §2

Compound: CCCN(C[C@@H](O)[C@H](Cc1ccccc1)NC(=O)[C@H](CC(N)=O)NC(=O)OCc1ccccc1)S(=O)(=O)c1ccccc1 [Example 7]
- IC50 [1]: 3 nM
- EC50 [2]: 25 nM
- CC50 at 168 h ([3]; cem cells): 0.039 µM

Compound: COc1ccc(S(=O)(=O)N(CC(C)C)C[C@@H](O)[C@H](Cc2ccccc2)NC(=O)OCc2cccnc2)cc1 [Example 17]
- EC50 [2]: 5 nM
- CC50 at 168 h [3]: 59 µM

Compound: COc1ccc(S(=O)(=O)N(CC(C)C)C[C@@H](O)[C@H](Cc2ccccc2)NC(=O)OCc2ccncc2)cc1 [Example 22]
- EC50 [2]: 18 nM
- CC50 at 168 h [3]: 31 µM

Compound: COc1ccc(S(=O)(=O)N(CC(C)C)C[C@@H](O)[C@H](Cc2ccccc2)NC(=O)OCc2ccc[n+]([O-])c2)cc1 [Example 25]
- EC50 [2]: 120 nM
- CC50 at 168 h [3]: 167 µM

Compound: COc1ccc(S(=O)(=O)N(CC(C)C)C[C@@H](O)[C@H](Cc2ccccc2)NC(=O)OC(C)(C)C)cc1 [Example 27]
- EC50 [2]: 177 nM
- CC50 at 168 h ([3]; cem cells): 300 µM

Compound: COc1ccc(S(=O)(=O)N(CC(C)C)C[C@@H](O)[C@H](Cc2ccccc2)NC(=O)c2ccccc2)cc1 [Example 28]
- EC50 [2]: 76 nM
- CC50 at 168 h [3]: 213 µM

Compound: COc1ccc(S(=O)(=O)N(CC(C)C)C[C@@H](O)[C@H](Cc2ccccc2)NC(=O)c2ccccc2C)cc1 [Example 29]
- EC50 [2]: 105 nM
- CC50 at 168 h [3]: 196 µM

Compound: COc1ccc(S(=O)(=O)N(CC(C)C)C[C@@H](O)[C@H](Cc2ccccc2)NC(=O)c2ccccc2Cl)cc1 [Example 30]
- EC50 [2]: 154 nM
- CC50 at 168 h [3]: 154 µM

Compound: COc1ccc(S(=O)(=O)N(CC(C)C)C[C@@H](O)[C@H](Cc2ccccc2)NC(=O)c2c(C)cccc2C)cc1 [Example 32]
- EC50 [2]: 98 nM
- CC50 at 168 h [3]: 17 µM

Source: patent US6046190A, “Hydroxyethylamino sulphonamides useful as retroviral protease inhibitors” (G.D. Searle & Co., priority 1996, dated 2000)
